Results from US11292760B2, “Therapeutic acrylates as enhanced medical adhesives” (Carnegie Mellon University, priority 2016, dated 2022).

How the values were obtained:
[1] = Solubility of TMA monomer in adhesive monomers; assay type: physicochemical
[2] = Time-lapse 1H NMR of hydrolysis after exposure to D2O; assay type: physicochemical; conditions: monomer dissolved in CDCl3, 1H NMR
Experimental: […] One drop of deuterium oxide (D2O, EMD Millipore) was then added and the sample inverted gently once to mix. Spectra were recorded immediately, then periodically for the next two hours.

Structure (SMILES) | solubility in methyl methacrylate monomer ([1]; commercial formulation) | solubility in n-butyl cyanoacrylate ([1]; commercial formulation) | time course of anhydride bond hydrolysis after exposure to D2O [2] [min] | solubility in BCA monomer ([1]; 25% TMA by weight in the adhesive, preliminary formulation tests)
C=C(C)C(=O)OC(=O)C(C)c1ccc(CC(C)C)cc1 (stereo not shown) [IbuMA, Ibuprofen Methacrylic Anhydride] | soluble | soluble | 90 | –
C=C(C)C(=O)Nc1ccc(C(=O)OCC)cc1 [BenzMA, Benzocaine Methacrylamide] | – | – | – | excellent solubility
